Reference: patent publication US20140243334A1, “SUBSTITUTED HYDOXAMIC ACIDS AND USES THEREOF” (Millennium Pharmaceuticals, Inc., priority 2010, published 2014)

Biological target: T1, purified human HDAC6 (Homo sapiens, UniProt Q9UBN7)
T1 construct: purchased BPS Bioscience 5006
T1 sequence (Q9UBN7 1-1215): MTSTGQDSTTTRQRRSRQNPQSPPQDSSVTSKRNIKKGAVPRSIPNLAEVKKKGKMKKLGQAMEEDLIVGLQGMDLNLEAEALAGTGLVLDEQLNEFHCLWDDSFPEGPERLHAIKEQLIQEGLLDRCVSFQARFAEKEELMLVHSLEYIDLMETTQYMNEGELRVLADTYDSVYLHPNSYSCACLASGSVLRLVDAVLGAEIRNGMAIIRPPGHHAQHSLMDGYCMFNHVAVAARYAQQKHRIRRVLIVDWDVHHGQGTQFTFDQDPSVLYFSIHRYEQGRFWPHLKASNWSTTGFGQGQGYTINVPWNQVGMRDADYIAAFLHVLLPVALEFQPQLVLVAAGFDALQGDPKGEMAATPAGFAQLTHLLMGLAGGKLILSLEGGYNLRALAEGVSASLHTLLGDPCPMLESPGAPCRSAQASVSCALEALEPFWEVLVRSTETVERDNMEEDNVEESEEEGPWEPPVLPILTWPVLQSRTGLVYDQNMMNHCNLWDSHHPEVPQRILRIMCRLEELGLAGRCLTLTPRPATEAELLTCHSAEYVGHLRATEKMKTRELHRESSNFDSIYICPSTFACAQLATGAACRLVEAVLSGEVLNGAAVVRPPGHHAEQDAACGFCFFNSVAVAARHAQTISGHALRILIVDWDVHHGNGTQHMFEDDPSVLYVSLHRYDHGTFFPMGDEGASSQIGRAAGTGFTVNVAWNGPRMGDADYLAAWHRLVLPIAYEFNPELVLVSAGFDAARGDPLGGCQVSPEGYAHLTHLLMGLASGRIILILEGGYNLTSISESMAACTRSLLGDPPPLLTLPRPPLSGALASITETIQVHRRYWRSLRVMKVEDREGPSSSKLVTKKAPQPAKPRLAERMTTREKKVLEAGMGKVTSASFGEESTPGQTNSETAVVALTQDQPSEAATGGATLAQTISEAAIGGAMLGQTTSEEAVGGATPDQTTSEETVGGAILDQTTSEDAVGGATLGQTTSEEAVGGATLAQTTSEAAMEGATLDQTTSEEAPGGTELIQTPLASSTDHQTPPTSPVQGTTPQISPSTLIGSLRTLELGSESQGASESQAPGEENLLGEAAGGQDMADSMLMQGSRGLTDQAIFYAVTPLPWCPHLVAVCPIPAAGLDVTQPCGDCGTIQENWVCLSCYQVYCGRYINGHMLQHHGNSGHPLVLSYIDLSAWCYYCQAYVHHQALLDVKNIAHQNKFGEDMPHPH
Assay: HDAC6 Enzyme Assay
Format: biochemical
Settings: HDAC6 inhibition at a compound concentration of 0.412 μM; read-out: Percent Inhibition at 0.412 μM
Method: To measure the inhibition of HDAC6 activity, purified human HDAC6 (BPS Bioscience; Cat. No. 5006) is incubated with substrate Ac-Arg-Gly-Lys(Ac)-AMC peptide (Bachem Biosciences; Cat. No. I-1925) for 1 hour at 30° C. in the presence of test compounds or vehicle DMSO control. The reaction is stopped with the HDAC inhibitor trichostatin A (Sigma; Cat. No. T8552) and the amount of Arg-Gly-Lys-AMC generated is quantitated by digestion with trypsin (Sigma; Cat. No. T1426) and subsequent measurement of the amount of AMC released using a fluorescent plate reader (Pherastar; BMG Technologies) set at Ex 340 nm and Em 460 nm. Concentration response curves are generated by calculating the fluorescence increase in test compound-treated samples relative to DMSO-treated controls, and enzyme inhibition (IC50) values are determined from those curves.

| inhibition at 0.412 µM | SMILES |
| --- | --- |
| 25% | COc1cccc2c1CC(C(=O)NO)CC2 (centres unmarked) [Compound I-15, N-hydroxy-8-methoxy-1,2,3,4-tetrahydronaphthalene-2-carboxamide] |
| 62% | O=C(NO)C1CCc2ccc(Oc3ccc(Cl)cc3)cc2C1 (centres unmarked) [Compound I-11, 7-(4-chlorophenoxy)-N-hydroxy-1,2,3,4-tetrahydronaphthalene-2-carboxamide] |
| 73% | O=C(NO)C1CCc2ccc(-c3ccc4ccccc4c3)cc2C1 (centres unmarked) [Compound I-86, N-hydroxy-5,6,7,8-tetrahydro-2,2′-binaphthalene-7-carboxamide] |
| 0% | COc1ccc2c(c1)CC(C)(C(=O)NO)CC2 (centres unmarked) [Compound I-76, N-hydroxy-7-methoxy-2-methyl-1,2,3,4-tetrahydronaphthalene-2-carboxamide] |
| 68% | O=C(NO)C1CCc2cc(NC(=O)C3CC3)ccc2C1 (centres unmarked) [Compound I-77, 6-[(cyclopropylcarbonyl)amino]-N-hydroxy-1,2,3,4-tetrahydronaphthalene-2-carboxamide] |
| 85% | O=C1CCc2c(Oc3ccc4c(c3)C[C@@H](C(=O)NO)CC4)ccnc2N1 [Compound I-4, (2S)—N-hydroxy-7-[(7-oxo-5,6,7,8-tetrahydro-1,8-naphthyridin-4-yl)oxy]-1,2,3,4-tetrahydronaphthalene-2-carboxamide] |
| 83% | O=C(NO)C1CCc2ccc(-c3cccc(-c4ccccc4)c3)cc2C1 (centres unmarked) [Compound I-110, 7-biphenyl-3-yl-N-hydroxy-1,2,3,4-tetrahydronaphthalene-2-carboxamide] |
| 68% | O=C(NO)C1CCc2cc(-c3ccc(Cl)cc3)ccc2C1 (centres unmarked) [Compound I-65, 6-(4-chlorophenyl)-N-hydroxy-1,2,3,4-tetrahydronaphthalene-2-carboxamide] |
| 78% | CN(C)CCOc1cccc(Oc2ccc3c(c2)CC(C(=O)NO)CC3)c1 (centres unmarked) [Compound I-46, 7-{3-[2-(dimethylamino)ethoxy]phenoxy}-N-hydroxy-1,2,3,4-tetrahydronaphthalene-2-carboxamide] |
| 87% | Cn1cc(-c2cc(C(=O)Nc3ccc4c(c3)CC(C(=O)NO)CC4)cc(C(F)(F)F)c2)cn1 (centres unmarked) [Compound I-35, N-hydroxy-7-{[3-(1-methyl-1H-pyrazol-4-yl)-5-(trifluoromethyl)benzoyl]amino}-1,2,3,4-tetrahydronaphthalene-2-carboxamide] |
| 79% | O=C1CCc2c(Oc3cc4c(cc3F)CCC(C(=O)NO)C4)ccnc2N1 (centres unmarked) [Compound I-31, 6-fluoro-N-hydroxy-7-[(7-oxo-5,6,7,8-tetrahydro-1,8-naphthyridin-4-yl)oxy]-1,2,3,4-tetrahydronaphthalene-2-carboxamide] |
| 89% | O=C(NO)C1CCc2ccc(-c3ccc(F)c(C(=O)N4CCCC4)c3)cc2C1 (centres unmarked) [Compound I-113, 7-[4-fluoro-3-(pyrrolidin-1-ylcarbonyl)phenyl]-N-hydroxy-1,2,3,4-tetrahydronaphthalene-2-carboxamide] |
| 90% | O=C(Nc1cc(Oc2ccc3c(c2)C[C@@H](C(=O)NO)CC3)ccn1)C1CC1 [Compound I-2, (2S)-7-({2-[(cyclopropylcarbonyl)amino]pyridin-4-yl}oxy)-N-hydroxy-1,2,3,4-tetrahydronaphthalene-2-carboxamide] |
| 79% | Cc1nnc(-c2cccc(-c3ccc4c(c3)CC(C(=O)NO)CC4)c2)o1 (centres unmarked) [Compound I-88, N-hydroxy-7-[3-(5-methyl-1,3,4-oxadiazol-2-yl)phenyl]-1,2,3,4-tetrahydronaphthalene-2-carboxamide] |
| 88% | O=C(NC1CC1)c1cccc(-c2ccc3c(c2)CC(C(=O)NO)CC3)c1 (centres unmarked) [Compound I-51, 7-{3-[(cyclopropylamino)carbonyl]phenyl}-N-hydroxy-1,2,3,4-tetrahydronaphthalene-2-carboxamide] |
| 62% | N#Cc1ccc2c(c1)CC(C(=O)NO)CC2 (centres unmarked) [Compound I-42, 7-cyano-N-hydroxy-1,2,3,4-tetrahydronaphthalene-2-carboxamide] |

| inhibition at 0.412 µM | SMILES |
| --- | --- |
| 57% | O=C(NO)C1CCc2ccc(Nc3ccncc3)cc2C1 (centres unmarked) [Compound I-33, N-hydroxy-7-(pyridin-4-ylamino)-1,2,3,4-tetrahydronaphthalene-2-carboxamide] |
| 85% | CC(=O)Nc1cccc(-c2ccc3c(c2)CCC(C(=O)NO)C3)c1 (centres unmarked) [Compound I-74, 6-[3-(acetylamino)phenyl]-N-hydroxy-1,2,3,4-tetrahydronaphthalene-2-carboxamide] |
| 74% | Cc1ccc(C)c(-c2ccc3c(c2)CC(C(=O)NO)CC3)c1 (centres unmarked) [Compound I-111, 7-(2,5-dimethylphenyl)-N-hydroxy-1,2,3,4-tetrahydronaphthalene-2-carboxamide] |
| 53% | O=C(NO)C1CCc2ccc(OCc3ccccc3)cc2C1 (centres unmarked) [Compound I-6, 7-(benzyloxy)-N-hydroxy-1,2,3,4-tetrahydronaphthalene-2-carboxamide] |
| 82% | CC(C)Oc1ncccc1-c1ccc2c(c1)CC(C(=O)NO)CC2 (centres unmarked) [Compound I-116, N-hydroxy-7-(2-isopropoxypyridin-3-yl)-1,2,3,4-tetrahydronaphthalene-2-carboxamide] |
| 82% | O=C(NO)C1CCc2ccc(-c3cc4ccccc4[nH]3)cc2C1 (centres unmarked) [Compound I-54, N-hydroxy-7-(1H-indol-2-yl)-1,2,3,4-tetrahydronaphthalene-2-carboxamide] |
| 73% | O=C(NO)C1CCc2ccc(-c3cc4ccccc4s3)cc2C1 (centres unmarked) [Compound I-61, 7-(1-benzothien-2-yl)-N-hydroxy-1,2,3,4-tetrahydronaphthalene-2-carboxamide] |
| 83% | O=C(NO)C1CCc2ccc(-c3cccc([N+](=O)[O-])c3)cc2C1 (centres unmarked) [Compound I-106, N-hydroxy-7-(3-nitrophenyl)-1,2,3,4-tetrahydronaphthalene-2-carboxamide] |
| 74% | CC1(C(=O)Nc2ccc3c(c2)CCC(C(=O)NO)C3)CCNCC1 (centres unmarked) [Compound I-85, N-{6-[(hydroxyamino)carbonyl]-5,6,7,8-tetrahydronaphthalen-2-yl}-4-methylpiperidine-4-carboxamide] |
| 82% | O=C(NO)C1CCc2ccc(-c3cccc(Cl)c3)cc2C1 (centres unmarked) [Compound I-49, 7-(3-chlorophenyl)-N-hydroxy-1,2,3,4-tetrahydronaphthalene-2-carboxamide] |
| 78% | O=C(NO)C1CCc2ccc(-c3ccccc3Cl)cc2C1 (centres unmarked) [Compound I-70, 7-(2-chlorophenyl)-N-hydroxy-1,2,3,4-tetrahydronaphthalene-2-carboxamide] |
| 70% | O=C(NO)C1CCc2ccc(Nc3ccccc3)cc2C1 (centres unmarked) [Compound I-23, 7-anilino-N-hydroxy-1,2,3,4-tetrahydronaphthalene-2-carboxamide] |
| 76% | COc1ccc2cc(-c3ccc4c(c3)CC(C(=O)NO)CC4)ccc2c1 (centres unmarked) [Compound I-114, N-hydroxy-6′-methoxy-5,6,7,8-tetrahydro-2,2′-binaphthalene-7-carboxamide] |
| 60% | O=C(NO)C1CCc2ccc(-c3ccncc3)cc2C1 (centres unmarked) [Compound I-17, N-hydroxy-7-pyridin-4-yl-1,2,3,4-tetrahydronaphthalene-2-carboxamide] |
| 8% | COc1ccc2c(c1)CC(C(=O)NO)CC2 (centres unmarked) [Compound I-1, N-hydroxy-7-methoxy-1,2,3,4-tetrahydronaphthalene-2-carboxamide] |

| SMILES | inhibition at 0.412 µM |
| --- | --- |
| CNC(=O)Nc1cccc(Oc2ccc3c(c2)CC(C(=O)NO)CC3)c1 (centres unmarked) [Compound I-57, N-hydroxy-7-(3-{[(methylamino)carbonyl]amino}phenoxy)-1,2,3,4-tetrahydronaphthalene-2-carboxamide] | 73% |
